Reference: US11850287B2, “Heterocyclic acyl hydrazone linkers, methods and uses thereof” (Ontario Institute for Cancer Research (OICR), priority 2017, dated 2023)

Legend:
[1] = Half-life of model acyl hydrazones in a simulated lysosomal environment (pH 4.5); assay type: physicochemical; settings: simulated lysosomal environment (acidic buffer)
Description: Ranging from the intracellularly readily cleavable linkers such as the acyl hydrazones to the relatively stable non-cleavable linkers, having the ability to tune the rate of release of the payload and to improve plasma stability provides opportunities not only to target a greater variety of diseased cells, but also to design agents tailored to achieve a better therapeutic window. Towards the goal of developing enhanced control of ADC linker stability, several model heterocyclic acyl hydrazones whose lability is modulated either by steric or stereoelectronic effects have been prepared.
Towards the goal developing enhanced control of ADC linker stability, several model cyclic acyl hydrazones whose lability is modulated by different substitutions have been prepared. Exemplary acyl hydrazones containing a substituted phenyl group adjacent to the imine carbon have been synthesized. […] Analogues of the heterocyclic linker compounds in Table 1 have been incorporated into linkers, using a similar strategy as employed in the linker synthesis in Mylotarg, as described in greater detail herein below

SKOV3 ovarian cells = experiment: Cytotoxicity against SKOV3 ovarian cancer cells (ATP content, CellTiter-Glo); assay type: cell-based; settings: DAR ratio 3.39 (Synagis-SMCC-DM1), 3.50 (Trastuzumab-SMCC-DM1), 6.59 (IIIa), 6.99 (IIIc)
Description: SKOV3 ovarian cells are incubated with the effectors for a period corresponding to 2 to 3 times their estimated doubling time and the amount of viable cells is determine by measuring ATP content in the wells. […] All ADCs are diluted in DPBS to 6× the highest concentration tested, followed by 10 3-fold serial dilutions in DPBS for a total of 11 concentration points. Each point is added to triplicate wells. DPBS is added in wells to measure the maximum growth. Cells are diluted at their appropriate seeding density (ranging from 150 to 1000 cells per well) in complete media supplemented with glutamine 2 mM, serum and antibiotic cocktail. They are distributed in white, opaque bottom, tissue-culture treated 384 well plates and incubated for 24 hrs at 37° C.+5% CO2. […] Total ATP is measured using CellTiter-Glo reagent from Promega as recommended by the supplier. […] Signal output is measured on a luminescence plate reader (envision, Perkin Elmer) set at an integration time of 0.1 sec. […]
Each concentration point (S) is normalized to the negative control wells (NC) and expressed as % survival (NC-S/NC×100). Potency (IC50) and efficacy are calculated from a non-linear curve fit of the points versus log of the concentrations without constrain on the slope. Refined data are analysed using Prism software.

Question: Which half-life [1] does the source give for CC(=O)N/N=C1\CCOc2ccc(F)cc21 [E] here?
Answer: 2.32 h

Question: Which IC50 (SKOV3 ovarian cells) does the source give for Synagis-SMCC-DM1: negative control ADC here?
Answer: 9.64 nM
